Among the test systems are M14 melanoma; OVCAR-8 ovarian; OVCAR-5 ovarian; SK-MEL-28 melanoma; LOX IMVI melanoma; NCI-H522 lung; NCI-H226 lung; NCI/ADR-RES ovarian; EKVX NSCLC; BT-549 breast.
Assay in all cases: NCI-60 cell line screen, 48 h

Structures are written as SMILES.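 Results reflect a 48-hour exposure of cells in 96-well plates to compound at five concentrations. GI50: concentration for 50% inhibition of growth. The concentration for full growth arrest is given as TGI.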

As for `C[C@]12CC[C@H]3[C@@H](C[C@@H]4SC(Nc5cccc(F)c5)=N[C@@]45CC(=O)CC[C@]35C)[C@@H]1CCC2=O`, the GI50 in the test with M14 melanoma was 2.36 µM; in the test on OVCAR-8 ovarian, 2.79 µM; with OVCAR-5 ovarian, 2.73 µM; with SK-MEL-28 melanoma it was 1.52 µM; in the test with LOX IMVI melanoma, 1.67 µM; with NCI-H522 lung, 1.63 µM. Besides, the GI50 was 2.35 µM with NCI-H226 lung, 2.81 µM with NCI/ADR-RES ovarian, 2.5 µM in the test on EKVX NSCLC and 1.54 µM in the test on BT-549 breast. The TGI amounted to 7.23 µM in the test with M14 melanoma; 7.98 µM in the test with OVCAR-8 ovarian; 18 µM with OVCAR-5 ovarian; 4.27 µM in the test on SK-MEL-28 melanoma; 3.21 µM with LOX IMVI melanoma; 3.06 µM with NCI-H522 lung. For the same compound, the TGI in the test with NCI-H226 lung is 5.7 µM; with NCI/ADR-RES ovarian, 17.2 µM; in the test on EKVX NSCLC it was 18.5 µM; in the test with BT-549 breast it was 3.61 µM.

As for `O=C(Oc1ccc([N+](=O)[O-])cc1)N1CCC(C(O)(c2ccc3c(c2)OCO3)c2ccc3c(c2)OCO3)CC1`, the GI50 in the test with M14 melanoma, with OVCAR-8 ovarian, in the test with OVCAR-5 ovarian, with SK-MEL-28 melanoma, in the test with LOX IMVI melanoma and in the test on NCI-H522 lung was greater than 100 µM in each case. In addition, the GI50 in the test on NCI-H226 lung, in the test with NCI/ADR-RES ovarian, with EKVX NSCLC and in the test with BT-549 breast was greater than 100 µM each time. In addition, the TGI in the test with M14 melanoma, with OVCAR-8 ovarian, in the test on OVCAR-5 ovarian, in the test on SK-MEL-28 melanoma, in the test with LOX IMVI melanoma and in the test with NCI-H522 lung was greater than 100 µM each time. The TGI in the test on NCI-H226 lung, in the test with NCI/ADR-RES ovarian, in the test with EKVX NSCLC and with BT-549 breast was greater than 100 µM in each case.

`COCCOC(C)C(/C=N/NC(N)=S)=N/NC(N)=S` (centres undefined): the GI50 with M14 melanoma is 0.0643 µM; with OVCAR-8 ovarian, greater than 100 µM; in the test with OVCAR-5 ovarian it was greater than 100 µM; in the test on SK-MEL-28 melanoma, greater than 100 µM; in the test with NCI-H522 lung, greater than 100 µM; with NCI-H226 lung, greater than 100 µM. Besides, the results for the GI50 in the test with NCI/ADR-RES ovarian, in the test with EKVX NSCLC and in the test with BT-549 breast were 0.0732 µM, 0.0905 µM and greater than 100 µM, respectively. For the same compound, the TGI with M14 melanoma, in the test with OVCAR-8 ovarian, with OVCAR-5 ovarian, in the test on SK-MEL-28 melanoma, in the test with LOX IMVI melanoma and in the test on NCI-H522 lung was greater than 100 µM in each case. For the same compound, the TGI in the test with NCI-H226 lung, in the test with NCI/ADR-RES ovarian, in the test with EKVX NSCLC and in the test on BT-549 breast was greater than 100 µM in each case.

As for `O=[N+]([O-])c1ccc(N(CCO)CCO)c2c1no[n+]2[O-]`, the GI50 with M14 melanoma was 1.22 µM; in the test with OVCAR-8 ovarian, 1.37 µM; with OVCAR-5 ovarian, 2.78 µM; with SK-MEL-28 melanoma, 1.98 µM; in the test with LOX IMVI melanoma, 1.03 µM; in the test with NCI-H522 lung it was 0.926 µM. The GI50 was 2.01 µM with NCI-H226 lung, 1.44 µM in the test on NCI/ADR-RES ovarian, 1.8 µM in the test on EKVX NSCLC and 1.18 µM in the test with BT-549 breast. For the same compound, the TGI is 2.76 µM in the test with M14 melanoma; 7.02 µM in the test with OVCAR-8 ovarian; 10.3 µM in the test on OVCAR-5 ovarian; 5.66 µM with SK-MEL-28 melanoma; 2.43 µM in the test on LOX IMVI melanoma; 3.38 µM in the test on NCI-H522 lung. Moreover, the TGI worked out at 6.59 µM in the test on NCI-H226 lung, 6.41 µM in the test with NCI/ADR-RES ovarian, 6.66 µM with EKVX NSCLC and 4 µM in the test with BT-549 breast.

Turning to `O=S(=O)(Nc1ccc(Cl)c(C(F)(F)F)c1)c1ccc(-c2cnc(C3CC3)o2)cc1`, the GI50 with M14 melanoma was 0.276 µM; in the test on OVCAR-8 ovarian, 1.54 µM; in the test on OVCAR-5 ovarian, 1.51 µM; in the test on SK-MEL-28 melanoma, 1.17 µM; in the test on LOX IMVI melanoma, 0.394 µM; in the test with NCI-H522 lung, 0.149 µM. The GI50 with NCI-H226 lung was 1.41 µM; in the test with NCI/ADR-RES ovarian, 0.163 µM; in the test with EKVX NSCLC, 1.34 µM; with BT-549 breast, 0.128 µM. The TGI in the test on M14 melanoma is 4.68 µM; in the test with OVCAR-8 ovarian it was greater than 36.2 µM; in the test with OVCAR-5 ovarian, 7.24 µM; in the test with SK-MEL-28 melanoma it was 5.79 µM; with LOX IMVI melanoma, 3.22 µM; in the test on NCI-H522 lung it was 3.25 µM. Besides, the TGI with NCI-H226 lung was 4.73 µM; with NCI/ADR-RES ovarian it was 2.43 µM; in the test with EKVX NSCLC, 9.29 µM; with BT-549 breast, 4.79 µM.

As for `Cc1cc(NC(=O)CCc2ccc(N3C(N)=NC(N)=NC3(C)C)cc2)ccc1S(=O)(=O)F`, the GI50 with M14 melanoma is 0.737 µM; with OVCAR-8 ovarian, 0.6 µM; with OVCAR-5 ovarian, 0.468 µM; in the test with SK-MEL-28 melanoma, greater than 32.6 µM; with LOX IMVI melanoma it was 0.172 µM; in the test with NCI-H522 lung, 3.66 µM. Further, the GI50 is 18.4 µM in the test on NCI-H226 lung, greater than 100 µM with NCI/ADR-RES ovarian, 0.884 µM in the test on EKVX NSCLC and 6.53 µM in the test on BT-549 breast. The TGI in the test with M14 melanoma, in the test on OVCAR-8 ovarian, in the test with OVCAR-5 ovarian, in the test on SK-MEL-28 melanoma, in the test on LOX IMVI melanoma and with NCI-H522 lung was greater than 100 µM in each case. The TGI is greater than 100 µM with NCI-H226 lung, greater than 100 µM with NCI/ADR-RES ovarian, greater than 100 µM in the test with EKVX NSCLC and greater than 91.9 µM in the test with BT-549 breast.
